# What was measured:
# [1] = tested on: GSDII patient; assay: Urinary organic acids, blood acylcarnitines and plasma amino acids, Example 2 patient; format: in vivo, human; settings: thirteen hours after initiating the C7 diet
# Procedure: (§1) Organic Acids may be measured as follows. Organic acids in urine specimens are determined with isolation by Liquid Partition Chromatography (LPC) and quantitative Gas Chromatography-Mass Spectrometry (GCMS) using an internal standard. The specimen is derivatized to form pentafluorobenzyl oximes (PFBO) of oxo-acids and the organic acids isolated by Liquid Partition chromatography on silicic acid hydrated with dilute sulfuric acid and eluted with mixtures of tert-Amyl alcohol and chloroform. After drying, the organic acids are derivatized to form volatile trimethylsilyl (TMS) derivatives for separation by capillary Gas Chromatography (GC) with temperature programming. Detection is by Mass Spectrometry (MS) with identification of the organic acids by their mass spectra. Organic acids are quantified by peak areas of reconstructed ion chromatograms with internal standards and calibration curves.
# (§2) Acylcarnitine Profiles. Acylcarnitines and carnitine levels in dried blood spots (dbs), plasma and amniotic fluid by automated electrospray tandem mass spectrometry Acylcarnitines are extracted from blood spots, plasmas and amniotic fluid with methanol containing stable isotopically labeled internal standards. The extract is derivatized to form butyl esters. An automated sample introduction system delivers the samples to the electrospray tandem mass spectrometer (ESI-MS/MS) operating in the multiple channel analysis mode in which acylcarnitines are identified, profiled, and quantified with stable isotopically labeled internal standards. This test also provides quantification of free, sum of acylcarnitines, and total carnitine levels.
# Citrate supplementation was continued throughout the treatment.
# [2] = tested on: adult-onset GSD II patient; assay: Urinary organic acids / blood acylcarnitines, Example 1 patient; format: in vivo, human; settings: C7 increased from 26 to 40% of total caloric intake (1.0 to 2.0 gm/Kg/day)
# Procedure: as §1
# Acylcarnitine Profiles. […] An automated sample introduction system delivers the samples to the electrospray tandem mass spectrometer (ESI-MS/MS) operating in the multiple channel analysis mode in which acylcarnitines are identified, profiled, and quantified with stable isotopically labeled internal standards. This test also provides quantification of free, sum of acylcarnitines, and total carnitine levels. […]
# [3] = Blood acylcarnitine profile after triheptanoin via nasogastric tube; format: in vivo, horse
# Text: as §2
# Horses: Eight healthy, fit 4 year old thoroughbred geldings may be used in a study. These horses are all sound and trained to the treadmill. The ability of horses to absorb and digest C7 oil was first determined.
# [4] = tested on: adult-onset GSD II (acid maltase deficiency) patient; assay: Clinical course and pCO2 on triheptanoin diet, Example 1 patient; format: in vivo, human
# Text: During the subsequent 2 years, the patient experienced progressive muscle weakness, affecting strength and endurance, swallowing and producing urgency for urination and defecation. The patient's breathing became a major issue and weight had decreased from ˜127 to 101 lbs (46 Kg) over this interval. […] Home O2 was started and upon respiratory arrest was intubated and unsuccessfully extubated leading to emergency admission lasting one month. Following informed consent, the patient agreed to enter an approved Institutional Review Board (IRB) Protocol for dietary therapy with triheptanoin oil.
# Clinical and Biochemical Course on Therapy. […] Esophageal dysmotility was documented. A percutaneous endoscopic gastrostomy (PEG) was placed on the sixth hospital day.
# The diet was based on vivonex and ˜1500 Kcal was given by nasogastric tube, on admission. […] Total caloric intake was raised from ˜1500 to 1700 to 1900 per day with these dietary changes during […] 33 day admission.
# The patient began ambulating by the 10th day that improved steadily, showering with assistance by the 28th day. Pneumonia on day 17 responded to therapy and was extubated on day 23. They were discharged on bilevel positive airway pressure (BIPAP), the C7 diet, and carnitine supplement.
# [5] = on C7 diet and carnitine supplement
compound,measurement,setting,value
"CCCCCCC(=O)OCC(COC(=O)CCCCCC)OC(=O)CCCCCC [C7, triheptanoin]",increase of plasma BCAA's,[1],~2 fold
same,increase of plasma Glutamine,[1],~2 fold
same,increase of plasma alanine level,[1],4 fold
same,propionyl overload from the metabolism of heptanoate,[2],without any evidence for propionyl overload
same,time of peak of C7 acyl carnitine,"[3]; 0.5 gm/kg via nasogastric tube, fasted 12 hours, three horses",90 min
same,time of peak serum concentration of C3 acylcarnitine,[3]; in vivo,120 min
same,time of peak serum concentration of C5 acylcarnitine,[3]; in vivo,120 min
same,pCO2 (35-45),"[4]; Hospital Day 1, C7 26% Kcal",43
same,pCO2 (35-45),"[4]; Hospital Day 4, C7 35% Kcal",51
same,pCO2 (35-45),"[4]; Hospital Day 7, C7 35% Kcal",42
same,pCO2 (35-45),"[4]; Hospital Day 23, C7 40% Kcal, extubated",48
same,pCO2 (35-45),"[4]; Hospital Day 33, C7 40% Kcal, discharge",44
same,gastrostomy feeds stopped (swallowing improved),[4]; after discharge,7 months
same,patient weight,"[4]; by 15 months post-discharge, 46 Kg on admission",60 kg
same,day of extubation,[4]; hospital admission on C7 diet,23 days
same,return to work half-time after discharge,[4]; [5],5 weeks
same,working full-time after discharge,[4]; [5],≤ 10 weeks
same,full vital capacity,[4]; post-discharge follow-up,40-45 % of predicted
same,urgency for urination and defecation,[4]; within 13 hours of beginning the C7 diet,had ceased and remained normal for the rest of the admission
same,pCO2,"[4]; within 13 hours of beginning the C7 diet, fell from 68, normal 35-45",43

# — patent publication US9186344B2, “Glycogen or polysaccharide storage disease treatment method” (Baylor Research Institute, priority 2004, dated 2015)
